In PubChem BioAssay (NCI):
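Interpolation was linear, between the two tested concentrations surrounding the appropriate level; five concentrations were tested over 48 hours in 96-well plates. TGI is the concentration that stops growth completely.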

How the values were obtained:
Test in all cases: NCI anticancer screen, dose series, 48 h
[1] = test system: 786-0 renal
[2] = test system: A498 renal
[3] = test system: A549 NSCLC
[4] = test system: ACHN renal
[5] = test system: CAKI-1 renal
[6] = test system: CCRF-CEM leukemia
[7] = test system: COLO 205 colon
[8] = test system: DLD-1 colon
[9] = test system: DMS 114 small cell lung
[10] = test system: DMS 273 small cell lung
[11] = test system: EKVX NSCLC
[12] = test system: HCT-116 colon
[13] = test system: HL-60(TB) leukemia
[14] = test system: HOP-18 NSCLC
[15] = test system: HOP-62 NSCLC
[16] = test system: HOP-92 NSCLC
[17] = test system: HT29 colon
[18] = test system: IGROV1 ovarian
[19] = test system: K-562 leukemia
[20] = test system: KM12 colon
[21] = test system: LXFL 529 NSCLC
[22] = test system: M14 melanoma
[23] = test system: M19-MEL melanoma
[24] = test system: MALME-3M melanoma
[25] = test system: MOLT-4 leukemia
[26] = test system: NCI-H226 lung
[27] = test system: NCI-H23 lung
[28] = test system: NCI-H460 lung
[29] = test system: NCI-H522 lung
[30] = test system: OVCAR-3 ovarian
[31] = test system: OVCAR-4 ovarian
[32] = test system: OVCAR-5 ovarian
[33] = test system: OVCAR-8 ovarian
[34] = test system: RPMI-8226 leukemia
[35] = test system: RXF 393 renal
[36] = test system: RXF-631 renal
[37] = test system: SF-268 CNS
[38] = test system: SF-295 CNS
[39] = test system: SF-539 CNS
[40] = test system: SK-MEL-2 melanoma
[41] = test system: SK-MEL-28 melanoma
[42] = test system: SK-MEL-5 melanoma
[43] = test system: SK-OV-3 ovarian
[44] = test system: SN12C renal
[45] = test system: SNB-19 CNS
[46] = test system: SNB-75 CNS
[47] = test system: SNB-78 CNS
[48] = test system: SR leukemia
[49] = test system: SW-620 colon
[50] = test system: TK-10 renal
[51] = test system: U251 CNS
[52] = test system: UACC-257 melanoma
[53] = test system: UACC-62 melanoma
[54] = test system: UO-31 renal
[55] = test system: XF 498 CNS

Question: For `CCC(O)CCCCCCCCCCCCCCC(=O)O` (stereo not given), which TGI [1] is on record?
Answer: Its TGI is greater than 100 µM.

Question: What about the TGI [2] of the same compound?
Answer: Its TGI is greater than 100 µM.

Question: And the TGI [3]?
Answer: The TGI was greater than 100 µM.

Question: And the TGI [4]?
Answer: Its TGI is greater than 100 µM.

Question: What about the TGI [5] of the same compound?
Answer: The TGI was greater than 100 µM.

Question: And the TGI [6]?
Answer: The TGI was greater than 100 µM.

Question: And the TGI [7]?
Answer: The TGI was greater than 100 µM.

Question: What about the TGI [8] of the same compound?
Answer: Its TGI is greater than 100 µM.

Question: What about the TGI [9] of the same compound?
Answer: Its TGI is greater than 100 µM.

Question: And the TGI [10]?
Answer: Its TGI is greater than 100 µM.

Question: And the TGI [11]?
Answer: Its TGI is greater than 100 µM.

Question: What about the TGI [12] of the same compound?
Answer: Its TGI is greater than 100 µM.

Question: And the TGI [13]?
Answer: The TGI was 80 µM.

Question: And the TGI [14]?
Answer: Its TGI is greater than 100 µM.

Question: And the TGI [15]?
Answer: Its TGI is greater than 100 µM.

Question: And the TGI [16]?
Answer: The TGI was greater than 100 µM.

Question: And the TGI [17]?
Answer: The TGI was greater than 100 µM.

Question: And the TGI [18]?
Answer: Its TGI is greater than 100 µM.

Question: And the TGI [19]?
Answer: Its TGI is greater than 100 µM.

Question: And the TGI [20]?
Answer: Its TGI is greater than 100 µM.

Question: What about the TGI [21] of the same compound?
Answer: Its TGI is greater than 100 µM.

Question: And the TGI [22]?
Answer: Its TGI is greater than 100 µM.

Question: And the TGI [23]?
Answer: The TGI was greater than 100 µM.

Question: And the TGI [24]?
Answer: The TGI was greater than 100 µM.

Question: And the TGI [25]?
Answer: The TGI was greater than 100 µM.

Question: What about the TGI [26] of the same compound?
Answer: The TGI was greater than 100 µM.

Question: What about the TGI [27] of the same compound?
Answer: The TGI was greater than 100 µM.

Question: And the TGI [28]?
Answer: Its TGI is greater than 100 µM.

Question: What about the TGI [29] of the same compound?
Answer: The TGI was greater than 100 µM.

Question: What about the TGI [30] of the same compound?
Answer: Its TGI is greater than 100 µM.

Question: And the TGI [31]?
Answer: Its TGI is greater than 100 µM.

Question: What about the TGI [32] of the same compound?
Answer: Its TGI is greater than 100 µM.

Question: What about the TGI [33] of the same compound?
Answer: The TGI was greater than 100 µM.

Question: And the TGI [34]?
Answer: The TGI was greater than 100 µM.

Question: What about the TGI [35] of the same compound?
Answer: Its TGI is greater than 100 µM.

Question: And the TGI [36]?
Answer: The TGI was greater than 100 µM.

Question: What about the TGI [37] of the same compound?
Answer: Its TGI is greater than 100 µM.

Question: What about the TGI [38] of the same compound?
Answer: The TGI was greater than 100 µM.

Question: What about the TGI [39] of the same compound?
Answer: Its TGI is greater than 100 µM.

Question: What about the TGI [40] of the same compound?
Answer: The TGI was greater than 100 µM.

Question: What about the TGI [41] of the same compound?
Answer: Its TGI is greater than 100 µM.

Question: What about the TGI [42] of the same compound?
Answer: The TGI was 40.6 µM.

Question: What about the TGI [43] of the same compound?
Answer: Its TGI is greater than 100 µM.

Question: What about the TGI [44] of the same compound?
Answer: The TGI was greater than 100 µM.

Question: What about the TGI [45] of the same compound?
Answer: The TGI was greater than 100 µM.

Question: And the TGI [46]?
Answer: The TGI was greater than 100 µM.

Question: And the TGI [47]?
Answer: Its TGI is greater than 100 µM.

Question: What about the TGI [48] of the same compound?
Answer: Its TGI is greater than 100 µM.

Question: What about the TGI [49] of the same compound?
Answer: Its TGI is greater than 100 µM.

Question: And the TGI [50]?
Answer: The TGI was greater than 100 µM.

Question: What about the TGI [51] of the same compound?
Answer: Its TGI is greater than 100 µM.

Question: What about the TGI [52] of the same compound?
Answer: Its TGI is greater than 100 µM.

Question: And the TGI [53]?
Answer: Its TGI is greater than 100 µM.

Question: And the TGI [54]?
Answer: Its TGI is greater than 100 µM.

Question: And the TGI [55]?
Answer: The TGI was greater than 100 µM.
